The assay relates to NL-RLuc virus (recombinant NL4-3 HIV with Renilla Luciferase gene). Description: Inhibition of HIV replication (NL-RLuc virus in MT-2 cells, luciferase readout). The assay is classed as cell-based, Human immunodeficiency virus (HIV). The settings on record: MT2, 120 h. The text has this:
Inhibition of HIV Replication:
A recombinant NL-RLuc proviral clone was constructed in which a section of the nef gene form NL4-3 was replaced with the Renilla Luciferase gene. This virus is fully infectious and can undergo multiple cycles of replication in cell culture. In addition, the luciferous reporter provides a simple and easy method for quantitating the extent of virus growth and consequently, the antiviral activity of test compounds. The plasmid pNLRLuc contains the proviral NL-Rluc DNA cloned into pUC18 at the PvuII site. The NL-RLuc virus was prepared by transfection of 293T cells with the plasmid pNLRLuc. Transfections were performed using the LipofectAMINE PLUS kit form Invitrogen (Carlsbad, Calif.) according to the manufacturer and the virus generated was titered in MT-2 cells. For susceptibility analyses, the titrated virus was used to infect MT-2 cells in the presence of compound, and after 5 days of incubation, cells were processed and quantitated for virus growth by the amount of expressed luciferase. Assay media was RPMI 1640 supplemented with 10% heat inactivated fetal bovine serum (FBS), 100 units/ml penicillin G/100 units/ml streptomycin, 10 mM HEPES buffer pH 7.55 and 2 mM L-glutamine. The results form at least 2 experiments were used to calculate the EC50 values. Luciferase was quantitated using the Dual Luciferase kit form Promega (Madison, Wis.). Susceptibility of viruses to compounds was determined by incubation in the presence of serial dilutions of the compound. The 50% effective concentration (EC50) was calculated by using the exponential form of the median effect equation where (Fa)=1/[1+(ED50/drug conc.)^m](Johnson V A, Byington R T. Infectivity Assay. In Techniques in HIV Research. ed. Aldovini A, Walker B D. 71-76. New York: Stockton Press. 1990).
Broadly, the EC50 is the concentration that produces a half-maximal response. As for `Cc1nc(C)c([C@H](OC(C)(C)C)C(=O)O)c(N2CCC(C)(C)CC2)c1-c1ccc2c(c1)CCN(c1cc(N3CCC(CCO)CC3)ncn1)C2` [Example 121, (S)-2-(tert-Butoxy)-2-(4-(4,4-dimethylpiperidin-1-yl)-5-(2-(6-(4-(2-hydroxyethyl)piperidin-1-yl)pyrimidin-4-yl)-1,2,3,4-tetrahydroisoquinolin-6-yl)-2,6-dimethylpyridin-3-yl)acetic Acid], the EC50 was 9 nM.
In the case of `Cc1cccc(Cl)c1CN1CCc2cc(-c3c(NCCCN4CCN(C)CC4)nc(C)c([C@H](OC(C)(C)C)C(=O)O)c3N3CCC(C)(C)CC3)ccc2C1` [Example 11], the EC50 amounted to 2 nM.
On to `CC1(C)CCN(c2c(-c3ccc4c(c3)CCN(c3ncnc5c3oc3ccccc35)C4)c(N)nc(Cl)c2[C@H](OC(C)(C)C)C(=O)O)CC1` [Example 100, (S)-2-(6-Amino-5-(2-(benzofuro[3,2-d]pyrimidin-4-yl)-1,2,3,4-tetrahydroisoquinolin-6-yl)-2-chloro-4-(4,4-dimethylpiperidin-1-yl)pyridin-3-yl)-2-(tert-butoxy)acetic Acid], for which the EC50 worked out at 4 nM.
On to `Cc1cccc(Cl)c1CN1CCc2cc(-c3c(C(=O)N4CCC(C)(C)CC4)nc(C)c([C@H](OC(C)(C)C)C(=O)O)c3N3CCC(C)(C)CC3)ccc2C1` [Example 118, (S)-2-(tert-Butoxy)-2-(5-(2-(2-chloro-6-methylbenzyl)-1,2,3,4-tetrahydroisoquinolin-6-yl)-4-(4,4-dimethylpiperidin-1-yl)-6-(4,4-dimethylpiperidine-1-carbonyl)-2-methylpyridin-3-yl)acetic Acid], for which the EC50 was 1 nM.
As to `Cc1nc(C)c([C@H](OC(C)(C)C)C(=O)O)c(N2CCC(C)(C)CC2)c1-c1ccc2c(c1)CCN(c1cc(N3CCOCC3)cnn1)C2` [Example 55, (S)-2-(tert-Butoxy)-2-(4-(4,4-dimethylpiperidin-1-yl)-2,6-dimethyl-5-(2-(5-morpholinopyridazin-3-yl)-1,2,3,4-tetrahydroisoquinolin-6-yl)pyridin-3-yl)acetic Acid], the EC50 worked out at 21 nM.
Under `Cc1nc(C)c([C@H](OC(C)(C)C)C(=O)O)c(N2CCC(C)(C)CC2)c1-c1ccc2c(c1)CCN(c1cc(N3CCCC(C)(C)C3)ncn1)C2` [Example 139, (S)-2-(tert-Butoxy)-2-(4-(4,4-dimethylpiperidin-1-yl)-5-(2-(6-(3,3-dimethylpiperidin-1-yl)pyrimidin-4-yl)-1,2,3,4-tetrahydroisoquinolin-6-yl)-2,6-dimethylpyridin-3-yl)acetic Acid] stands 4 nM; under `Cc1nc(C)c([C@H](OC(C)(C)C)C(=O)O)c(N2CCC(C)(C)CC2)c1-c1ccc2c(c1)CCN(c1nccc(N3C4CCC3COC4)n1)C2` [Example 32, (2S)-2-(tert-Butoxy)-2-[4-(4,4-dimethylpiperidin-1-yl)-2,6-dimethyl-5-[2-(4-{3-oxa-8-azabicyclo[3.2.1]octan-8-yl}pyrimidin-2-yl)-1,2,3,4-tetrahydroisoquinolin-6-yl]pyridin-3-yl]acetic Acid], 1 nM; under `Cc1nc(C)c([C@H](OC(C)(C)C)C(=O)O)c(N2CCC(C)(C)CC2)c1-c1ccc2c(c1)CCN(c1nccc(N3CCN4CCC3CC4)n1)C2` [Example 44, (2S)-2-(tert-Butoxy)-2-{5-[2-(4-{1,4-diazabicyclo[3.2.2]nonan-4-yl}pyrimidin-2-yl)-1,2,3,4-tetrahydroisoquinolin-6-yl]-4-(4,4-dimethylpiperidin-1-yl)-2,6-dimethylpyridin-3-yl}acetic Acid], 27 nM.
The same measure for `Cc1cccc(Cl)c1CN1CCc2cc(-c3c(CNCCCCc4ccccc4)nc(C)c([C@H](OC(C)(C)C)C(=O)O)c3N3CCC(C)(C)CC3)ccc2C1` [Example 155, (S)-2-(tert-Butoxy)-2-(5-(2-(2-chloro-6-methylbenzyl)-1,2,3,4-tetrahydroisoquinolin-6-yl)-4-(4,4-dimethylpiperidin-1-yl)-2-methyl-6-(((4-phenylbutyl)amino)methyl)pyridin-3-yl)acetic Acid]: 55 nM.

Source of the values: patent publication US20200016136A1 (VIIV HEALTHCARE UK (NO. 5) LIMITED, priority 2017, published 2020).
